# Measured values taken from US20210274784A1, “HERBICIDAL MIXTURES COMPRISING ISOXAFLUTOLE, SAFLUFENACIL AND AN IMIDAZOLINONE HERBICIDE; AND THEIR USE IN SOYBEAN AND COTTON CULTURES” (BASF SE, priority 2018, published 2021).
# Tested on: ALOMY (Alopecurus myosuroides, Blackgrass)
# Experiment: post-emergence greenhouse experiment, herbicidal action (scale 0 to 100)
# Type: in vivo
# Details: test period 20 days
# Source text: The culture containers used were plastic flowerpots containing loamy sand with approximately 3.0% of humus as the substrate. The seeds of the test plants were sown separately for each species. For pre-emergence treatment, the active ingredients, which had been suspended or emulsified in water, were applied directly after sowing by means of finely distributing nozzles. The containers were irrigated gently to promote germination and growth and subsequently covered with transparent plastic hoods until the plants had rooted. This cover caused uniform germination of the test plants, unless this had been impaired by the active ingredients. For post-emergence treatment, the test plants were first grown to a height of 3 to 32 cm, depending on the plant habit, and only then treated with the active ingredients which had been suspended or emulsified in water. For this purpose, the test plants were either sown directly and grown in the same containers, or they were first grown separately as seedlings and transplanted into the test containers a few days prior to treatment. Depending on the species, the plants were kept at 10-25° C. or 20-35° C., respectively. The test period extended over 20 days. During this time, the plants were tended, and their response to the individual treatments was evaluated. The evaluation was carried out by using a scale from 0 to 100. […]
compound,measurement,setting,value
"CS(=O)(=O)c1cc(C(F)(F)F)ccc1C(=O)c1cnoc1C1CC1 [Isoxaflutole, isoxaflutole]","Herbicidal action against ALOMY, Found","growth stage 11, Isoxaflutole 3.125 g/ha alone",0
same,"Herbicidal action against ALOMY, Found","growth stage 11, Isoxaflutole 6.25 g/ha alone",0
